Reference: patent US20070213291A1, “Therapeutically useful synthetic oligonucleotides” (priority 1999, published 2007)

How the values were obtained:
Type in all cases: cell-based
[1] = system: Jurkat human leukemia T cells; experiment: Inhibition of Jurkat human leukemia T cell proliferation (MTT reduction); details: 100 μg/ml sequence, 48 h, 2.5×10^5 cells/ml
Protocol: (§1) Cells were seeded in 6 (1 ml/well), 24 (0.5 ml/well) or 96 (0.1 ml/well) well flat-bottom microplates and were maintained at 37° C. in a 5% CO2 atmosphere. Unless stated otherwise, 2.5×10^5 cells/ml were incubated with 0 μg/ml (control) and 100 μg/ml (treated) of 2 to 45 base sequences containing A, C, G and T for 48 h.
MTT was measured at a wavelength of 570 nm using a multiplate spectrophotometer reader (ELX800, Bio-TEK Instruments Inc., Winooski, Vt.).
Jurkat human leukemia T cells are an atypical multi-drug resistant human suspension tumor cell model.

[2] = system: Jurkat human leukemia T cells; experiment: Cell cycle stage in Jurkat cells (propidium iodide flow cytometry); details: 24 h
Protocol: Cell cycle stage was determined using a […]™ PLUS DNA commercial kit (Becton Dickinson). Briefly, nuclei from cells were obtained by dissolving the cell membrane in a nonionic detergent, eliminating the cell cytoskeleton and nuclear proteins with trypsin, digesting the cellular RNA with RNase and stabilizing the nuclear chromatin with spermine. Propidium iodide was added to the cell nuclei and their fluorescence was analyzed in a flow cytometer equipped with electronic doublet discrimination capability (FACSCalibur, Becton Dickinson, San Jose, Calif.). Accumulation of cells in G0/G1, early S (SE), mid S (SM), late S (SL) or G2/M phases of the cell cycle was analyzed using MODFIT LT software (Verity Software House Inc., Topsham, Mass.).
Exponentially growing Jurkat human leukemia T cells (Table 28) and MCF-7 human breast cancer cells (5×10^5 cells/ml) (Table 29) were incubated for 24 h with 2, 6, 15, 18, 27 and 45 base sequences containing A, C, G and T. The cells were collected and centrifuged and cell cycle stage was determined.
Jurkat human cell leukemia T cells (1×10^6 cells/ml) were incubated for 24 h with 6 base GT SEQ ID NO:25, conplementary 6 base AC SEQ ID NO:79 and 6 base GT SEQ ID NO:25+6 base AC SEQ ID NO:79. GT SEQ ID NO:25 and AC SEQ ID NO:79 were hybridized by mixing the oligonucleotides (1:1) and heating for 10 minutes at 65° C. As controls, GT SEQ ID NO:25 and AC SEQ ID NO:79 were heated for 10 minutes at 65° C. (Table 30).

[3] = system: Jurkat human leukemia T cells; experiment: NuMA release into supernatant (ELISA); details: for % NUMA RELEASED: Jurkat 1×10^6/ml; for % NuMA released (treated vs untreated cells): 50 μM sequence
Protocol: (§2) The redistribution of phosphatidylserine in the plasma membrane during apoptosis was measured by flow cytometry using FITC-conjugated annexin V (BD Pharmingen, San Diego, Calif.). NuMA release into the supernatant was determined using a commercial ELISA kit (Oncogen/Calbiochem, Cambridge, Mass.).
Jurkat human leukemia T cells were incubated with 50 μM of 3, 4, 5, 6 and 7 GT base sequences, a 5 base ACGT sequence, 6 base AG, GG, AGT and CGT sequences and a 7 base GG sequence.
Jurkat human leukemia T cells (1×10^6/ml) were incubated with 6 and 27 GT base sequences (Table 32). NuMA was determined as in Example 23.
Jurkat human cell leukemia T cells were incubated for 24 h with 6 base GT SEQ ID NO:25, complementary 6 base AC SEQ ID NO:79, and 6 base GT SEQ ID NO:25+6 base AC SEQ ID NO:79. GT SEQ ID NO:25 and AC SEQ ID NO:79 were hybridized by mixing the sequences (1:1) and heating for 10 minutes at 65° C. As controls, GT SEQ ID NO:25 and AC SEQ ID NO:79 were heated for 10 minutes at 65° C. (Table 33). Apoptosis was evaluated as in Example 23.

[4] = system: Jurkat human leukemia T cells; experiment: Apoptosis by phosphatidylserine/annexin V-FITC flow cytometry; details: 50 μM sequence
Protocol: as §2
Jurkat human leukemia T cells were incubated with 50 μM of 3, 4, 5, 6 and 7 GT base sequences, a 5 base ACGT sequence, 6 base AG, GG, AGT and CGT sequences and a 7 base GG sequence. […]
Jurkat human leukemia T cells were incubated with GT-rich or AC-rich sequences derived from the murA gene of Mycobacterium phlei (GenBank: Accession Number X99776). Inhibition of proliferation was measured by the reduction of MTT as in Example 3, cell cycle arrest was detected by flow cytometry using propidium iodide as in Example 21 and apoptosis was evaluated by flow cytometry using annexin-V-FITC as in Example 23.

[5] = system: MCF-7 human breast cancer cells; experiment: Inhibition of MCF-7 cell proliferation (MTT); details: 100 μg/ml, 48 h, 5×10^5 cells/ml
Protocol: as §1
Cell proliferation was measured using dimethylthiazol-diphenyl-tetrazolium (MTT) reduction (Mosman et al. J. Immunol. Methods 65:55, 1983). MTT was measured at a wavelength of 570 nm using a multiplate spectrophotometer reader (ELX800, Bio-TEK Instruments Inc., Winooski, Vt.).
MCF-7 human breast cancer cells are a caspase 3 negative, estrogen-dependent human solid tumor model. MCF-7 cells (5×10^5 cells/ml) were incubated with 3 and 6 base GT sequences (Table 7).

[6] = system: THP-1 human acute monocytic leukemia cells; experiment: Cytokine production by THP-1 cells (ELISA); details: THP-1, 1×10^6 cells, 100 μg/ml, 48 h; p70 complex and free p40
Protocol: Unless stated otherwise, 1×10^6 cells were incubated with 100 μg/ml of each of the sequences tested for 48 h at 37° C. in 5% CO2. Production of cytokines IL-6, IL-10, IL-12, IL-1beta and TNF-alpha was determined in pg/ml in 100 μl of culture supernatant using the appropriate commercial ELISA (BioSource, Camarillo Calif.). The IL-12 ELISA measures both IL-12 p70 complex and free p40 subunit. Results are expressed as the “fold” (×) increase in cytokine production by treated cells compared to control cells.
THP-1 human acute monocytic leukemia cells were incubated with 2, 3, 6, 9, 12, 14, 15 and 18 base GT sequences and production of the cyotkine IL-6 was determined (Table 35).
THP-1 human acute monocytic leukemia cells were incubated with 6 base GT, AG, CG, GG, AGT and CGT sequences and production of the cytokines IL-12 and IL-6 was determined (Table 36).
THP-1 human acute monocytic leukemia cells were incubated with 6 base GT sequences, having either an oxygen (phosphodiester) or a sulfur (phosphorothioate) as the nonbridging atom on the phosphate groups and production of the cytokine IL-12 was determined (Table 39).
THP-1 human acute monocytic leukemia cells were incubated with 6 base GT SEQ ID NO:25, having either an oxygen (phosphodiester) or a sulfur (phosphorothioate) as the nonbridging atom on the phosphate groups and production of the cytokine IL-12 was determined (Table 40).

[7] = Jurkat 1×10^6 cells/ml, sequences heated 10 minutes at 65° C.

Substance	% INHIBITION of Jurkat human leukemia T cell proliferation [1] [%]	% of cells in apoptosis (positive for PS/A-V staining) [4] [%]	% NuMA released (treated vs untreated cells) ([3]; Jurkat) [%]	% INHIBITION of MCF-7 human breast cancer cell proliferation [5] [%]	↑ IL-12 (fold increase treated vs control cells) [6] [x]	other results
GGGGGGGTGGGGGGGTGGGGGGGTGGG (unmodified DNA) [SEQ ID NO:4]	11	–	–	–	–	% of cells in phase: G0/G1 ([2]; Jurkat, 100 μg/ml): 36.5%; % of cells in phase: G2/M ([2]; Jurkat, 100 μg/ml): 22.3%; % of cells in phase: SE ([2]; Jurkat, 100 μg/ml): 16.3%; % of cells in phase: SL ([2]; Jurkat, 100 μg/ml): 11.1%; % of cells in phase: SM ([2]; Jurkat, 100 μg/ml): 13.8%; Arrest (cell cycle) ([2]; Jurkat, 100 μg/ml): None; % NUMA RELEASED [3]: 90%
GGTG (unmodified DNA) [SEQ ID NO:56]	54	24	112	–	–	–
GG(GG)1GGG (DNA GGGTGGG; unmodified DNA)	–	12	26	–	–	–
GoGoGoTsGoGo	12	–	–	0	0.2	–
GsGsGoToGsGs	−13	–	–	−3	0	–
GTGG (unmodified DNA) [SEQ ID NO:52]	52	24	60	–	–	–
GoGoGsTsGoGo	13	–	–	43	0.5	–
GGGGGTGGGGGTGGGGGTGGGGGTGGG (unmodified DNA) [SEQ ID NO:3]	24	–	–	–	–	% of cells in phase: G0/G1 ([2]; Jurkat, 100 μg/ml): 40.5%; % of cells in phase: G2/M ([2]; Jurkat, 100 μg/ml): 23.6%; % of cells in phase: SE ([2]; Jurkat, 100 μg/ml): 13.3%; % of cells in phase: SL ([2]; Jurkat, 100 μg/ml): 9.7%; % of cells in phase: SM ([2]; Jurkat, 100 μg/ml): 12.9%; Arrest (cell cycle) ([2]; Jurkat, 100 μg/ml): None; % NUMA RELEASED [3]: 139%
GGGGTGG (unmodified DNA) [SEQ ID NO:62]	41	30	123	–	–	–
GoGsGoToGsGo	11	–	–	13	−0.1	–
GGTGG (unmodified DNA) [SEQ ID NO:60]	50	25	120	–	–	–
GoGoGsToGoGo	17	–	–	12	0.1	–
CG(GT)1A (DNA CGGTA; unmodified DNA) [SEQ ID NO:80]	–	6	9	–	–	–
GGGTG (unmodified DNA) [SEQ ID NO:61]	50	25	92	–	–	–
GGGTGGGTGGGTGGGTGGGTGGGTGGG [SEQ ID NO:2]	23	–	–	–	–	% of cells in phase: G0/G1 ([2]; Jurkat, 100 μg/ml): 34.3%; % of cells in phase: G2/M ([2]; Jurkat, 100 μg/ml): 26.4%; % of cells in phase: SE ([2]; Jurkat, 100 μg/ml): 15.5%; % of cells in phase: SL ([2]; Jurkat, 100 μg/ml): 10.3%; % of cells in phase: SM ([2]; Jurkat, 100 μg/ml): 13.6%; Arrest (cell cycle) ([2]; Jurkat, 100 μg/ml): None; % NUMA RELEASED [3]: 49%
GG(GT)1	–	21	64	–	–	–
GsGoGoToGoGs	16	–	–	12	−0.1	–
CC(AC)1CC (DNA CCACCC; unmodified DNA) [SEQ ID NO:79]	–	–	–	–	–	% cells in phase: G0/G1 [2, 7]: 36.0%; % cells in phase: G2/M [2, 7]: 30.5%; % cells in phase: SE [2, 7]: 10.4%; % cells in phase: SL [2, 7]: 9.7%; % cells in phase: SM [2, 7]: 13.4%; Arrest (cell cycle) [2, 7]: had no effect on the cell cycle and None; % NuMA released (untreated vs treated cells) ([3]; Jurkat, 24 h, sequences heated 10 minutes at 65° C.): 9%
